Reference: US7691877B2, “Pharmaceuticals” (priority 2006, dated 2010)
pEC50: −log10 of the molar value.

How the values were obtained:
TLR7 receptor = target: T1, TLR7 receptor (Homo sapiens, UniProt Q9NYK1); assay: PBL/HCV replicon bioassay; format: cell-based; settings: concentration applied to PBL (24 h) giving 50% reduction of HCV replicon levels (luciferase) after transfer of PBL culture medium to Huh-7 replicon cells (48 h)
T1 construct: PBL contain as a subpopulation plasmacytoid dendritic cells which are the natural interferon producing cells; endogenous in cells; host or cells: peripheral blood lymphocytes (PBL), containing plasmacytoid dendritic cells
T1 sequence (Q9NYK1 27-1049): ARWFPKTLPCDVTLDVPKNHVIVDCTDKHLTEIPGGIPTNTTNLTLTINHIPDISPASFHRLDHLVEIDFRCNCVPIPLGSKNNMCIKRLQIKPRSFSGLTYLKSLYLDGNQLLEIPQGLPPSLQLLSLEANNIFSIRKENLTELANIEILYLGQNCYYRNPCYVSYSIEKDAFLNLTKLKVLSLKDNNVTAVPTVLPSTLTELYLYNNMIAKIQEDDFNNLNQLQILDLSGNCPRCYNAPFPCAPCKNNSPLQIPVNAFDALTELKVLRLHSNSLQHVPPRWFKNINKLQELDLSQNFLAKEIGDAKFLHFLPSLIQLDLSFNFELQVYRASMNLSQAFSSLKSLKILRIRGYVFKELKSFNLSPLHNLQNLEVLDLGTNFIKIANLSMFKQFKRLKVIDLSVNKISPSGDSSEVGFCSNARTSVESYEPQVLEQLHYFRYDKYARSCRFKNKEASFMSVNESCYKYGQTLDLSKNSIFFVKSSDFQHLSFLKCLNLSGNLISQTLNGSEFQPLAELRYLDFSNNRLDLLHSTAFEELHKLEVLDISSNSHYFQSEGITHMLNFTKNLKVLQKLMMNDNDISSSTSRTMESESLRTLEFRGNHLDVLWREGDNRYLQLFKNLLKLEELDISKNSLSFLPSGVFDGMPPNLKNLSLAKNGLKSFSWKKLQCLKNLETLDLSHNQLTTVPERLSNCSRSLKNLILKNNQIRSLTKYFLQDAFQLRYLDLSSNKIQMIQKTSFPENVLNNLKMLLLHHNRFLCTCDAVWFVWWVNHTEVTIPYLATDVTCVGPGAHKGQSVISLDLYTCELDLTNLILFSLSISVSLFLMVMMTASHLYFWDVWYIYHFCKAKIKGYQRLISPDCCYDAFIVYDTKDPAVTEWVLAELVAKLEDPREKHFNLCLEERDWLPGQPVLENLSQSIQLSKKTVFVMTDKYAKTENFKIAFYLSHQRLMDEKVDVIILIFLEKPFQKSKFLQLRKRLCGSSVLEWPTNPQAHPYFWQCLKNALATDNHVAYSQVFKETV
Description: PBL contain as a subpopulation plasmacytoid dendritic cells which are the natural interferon producing cells during an infection and as such are an excellent model in which to profile interferon inducers. As an extremly sensitive antiviral bioassay, supernatant taken from PBL is assayed for antiviral activity in the HCV replicon system.
The HCV replicon (Huh-5-2[I389luc-ubi-neo-NS3-3′/ET]) is an in vitro model of HCV replication in which the luciferase reporter is incorporated into HCV sequences and stably maintained in the human hepatoma cell line Huh-7. The firefly luciferase reporter is expressed as a luciferase-ubiquitin-neomycin phosphotransferase fusion protein which is cleaved by host proteases to release luciferase. The replicon also contains an internal EMCV IRES, which drives translation of HCV NS3-5B polyprotein, which harbour cell culture adapted mutations to permit high cloning efficiency. […] Firefly luciferase activity is detected using a Bright-Glo™ Luciferase Assay System manufactured by Promega.
An initial 3 fold serial dilution series of compounds in 100% DMSO is prepared from stocks. The dilution series is then further diluted 100 fold with complete RPMI-FCS. The final concentration of DMSO in the assay is thus 0.1% and that of the test compound is 1/1000 in the 100% DMSO dilution series. PBL are prepared seeded at 5×10^5/well/90 μl into the previously prepared compound containing assay plates (96 well clear bottomed TC grade) and incubated for 24 h.
LucUbiNeo HCV replicon cells are seeded at 10^4/well/90 μl. These are incubated for 24 h. After 24 h, 10 μl of medium is transferred from the PBL assay plates to the HCV replicon plates and incubated for a further 48 h.

[1] = test system: all other known Toll-like Receptors; assay: Selectivity for TLR7 over other Toll-like Receptors
[2] = test system: MEK, CDK1, CDK2, JNK, MSK, MSK-1, SGK, AMPK, MLCK, CHK-2, PDE3, PDE4 and PDE5; assay: Selectivity for TLR7 over kinases and phosphodiesterase enzymes; format: biochemical
[3] = test system: MAP (mitogen-activated protein kinase); assay: Selectivity for TLR7 over MAP; format: biochemical
[4] = test system: HCV replicon containing cells; assay: Direct response of HCV replicon containing cells to TLR agonists; format: cell-based, human; settings: applied directly to replicon cells, without PBL conditioned medium

Structure (SMILES) | pEC50 (TLR7 receptor) | also measured
Cc1ccc(Cn2c(=O)[nH]c3c(N)nc(-c4cnco4)cc32)cn1 [Example 78] | 7.00 | 
COCCNCc1cc2c([nH]c(=O)n2Cc2ccccc2)c(N)n1 [Example 34] | 5.89 | 
Cc1nc(N)c2[nH]c(=O)n(Cc3ccccc3)c2c1C [Example 3, 1-Benzyl-4-amino-6,7-dimethyl-1,3-dihydro-imidazo[4,5-c]Pyridin-2-one] | 6.58 | 
Nc1nc(-c2ncco2)cc2c1[nH]c(=O)n2Cc1ccccc1 [Example 12, 4-Amino-1-benzyl-6-oxazol-2-yl-1,3-dihydro-imidazo[4,5-c]pyridin-2-one] | 6.62 | selectivity for the TLR7 receptor over all other known Toll-like Receptors [1]: selective; selectivity for the TLR7 receptor over MEK, CDK1, CDK2, JNK, MSK, MSK-1, SGK, AMPK, MLCK, CHK-2, PDE3, PDE4 and PDE5 [2]: selective; selectivity for the TLR7 receptor over MAP (mitogen-activated protein kinase) [3]: selective
Cc1cc2c([nH]c(=O)n2Cc2cccc(C(F)(F)F)c2)c(N)n1 [Example 25] | 6.00 | 
CCCc1cc2c([nH]c(=O)n2Cc2ccccc2)c(N)n1 [Example 23] | 5.97 | 
COCc1cc2c([nH]c(=O)n2Cc2ccccc2)c(N)n1 [Example 40] | 6.37 | 
N#Cc1cc2c([nH]c(=O)n2Cc2ccccc2)c(N)n1 [Example 39] | 5.66 | 
CCc1cc2c([nH]c(=O)n2Cc2ccccc2)c(N)n1 [Example 37] | 6.10 | 
Nc1nc(-n2cccn2)cc2c1[nH]c(=O)n2Cc1ccccc1 [Example 83] | 6.33 | 
Nc1nc(C(F)(F)F)cc2c1[nH]c(=O)n2Cc1ccc(Cl)nc1 [Example 60] | 6.35 | 
Cc1cnn(-c2cc3c([nH]c(=O)n3Cc3ccccc3)c(N)n2)c1 [Example 86] | 6.26 | 
CC(=O)c1cc2c([nH]c(=O)n2Cc2ccccc2)c(N)n1 [Example 36] | 6.43 | 
Nc1nc(-c2ncc[nH]2)cc2c1[nH]c(=O)n2Cc1ccccc1 [Example 21, 4-Amino-1-benzyl-6-(1H-imidazol-2-yl)-1,3-dihydro-imidazo[4,5-c]pyridin-2-one] | 6.67 | 
Cc1cc2c([nH]c(=O)n2Cc2cccc(F)c2)c(N)n1 [Example 27] | 6.34 | 
Nc1nc(C(F)F)cc2c1[nH]c(=O)n2Cc1ccccc1 [Example 38] | 6.07 | 
CC(C)Cn1cnc2c(N)nc3ccccc3c21 [Imiquimod] |  | direct response of HCV replicon containing cells to the TLR agonist [4]: do not respond directly

Structure (SMILES) | pEC50 (TLR7 receptor) | also measured
CCc1coc(-c2cc3c([nH]c(=O)n3Cc3ccc(C)nc3)c(N)n2)n1 [Example 20, 4-Amino-6-(4-ethyl-oxazol-2-yl)-1-(6-methyl-pyridin-3-ylmethyl)-1,3-dihydro-imidazo[4,5-c]pyridin-2-one] | 6.15 | 
CC(C)c1cc2c([nH]c(=O)n2Cc2ccccc2)c(N)n1 [Example 24] | 5.80 | 
COCCn1c(=O)[nH]c2c(N)nc(C(F)(F)F)cc21 [Example 55] | 5.70 | 
Cc1cc2c([nH]c(=O)n2Cc2ccccc2)c(N)n1 [Example 2, 4-Amino-1-benzyl-6-methyl-1,3-dihydro-imidazo[4,5-c]pyridin-2-one] | 5.81 | selectivity for the TLR7 receptor over all other known Toll-like Receptors [1]: selective; selectivity for the TLR7 receptor over MEK, CDK1, CDK2, JNK, MSK, MSK-1, SGK, AMPK, MLCK, CHK-2, PDE3, PDE4 and PDE5 [2]: selective
Nc1nc(-c2ccccn2)cc2c1[nH]c(=O)n2Cc1ccccc1 [Example 32] | 5.77 | 
COCCOc1cc2c([nH]c(=O)n2Cc2ccccc2)c(N)n1 [Example 17, 4-Amino-1-benzyl-6-(2-methoxy-ethoxy)-1,3-dihydro-imidazo[4,5-c]pyridin-2-one] | 6.02 | 
Nc1nc(C(F)(F)F)cc2c1[nH]c(=O)n2Cc1ccc(Br)cc1 [Example 70] | 6.18 | 
Cc1nc(N)c2[nH]c(=O)n(Cc3ccc(F)cc3)c2c1C [Example 61] | 5.77 | 
Nc1nc2c(c3c1[nH]c(=O)n3Cc1ccccc1)CCC2 [Example 31] | 5.49 | 
Nc1nc(-c2ccccc2F)cc2c1[nH]c(=O)n2Cc1ccccc1 [Example 22, 4-Amino-1-benzyl-6-(2-fluoro-phenyl)-1,3-dihydro-imidazo[4,5-c]pyridin-2-one] | 6.35 | 
Cc1ccc(Cn2c(=O)[nH]c3c(N)nc(-c4ncno4)cc32)cn1 [Example 82] | 6.90 | 
COC(=O)c1cc2c([nH]c(=O)n2Cc2ccccc2)c(N)n1 [Example 4, 4-Amino-1-benzyl-2-oxo-2,3-dihydro-1H-imidazo[4,5-c]pyridine-6-carboxylic acid methyl ester] | 6.30 | 
Nc1nc(C2CC2)cc2c1[nH]c(=O)n2Cc1ccccc1 [Example 1, 4-Amino-1-benzyl-6-cyclopropyl-1,3-dihydro-imidazo[4,5-c]pyridin-2-one] | 6.03 | selectivity for the TLR7 receptor over all other known Toll-like Receptors [1]: selective; selectivity for the TLR7 receptor over MEK, CDK1, CDK2, JNK, MSK, MSK-1, SGK, AMPK, MLCK, CHK-2, PDE3, PDE4 and PDE5 [2]: selective
COCCNc1cc2c([nH]c(=O)n2Cc2ccccc2)c(N)n1 [Example 49] | 5.66 | 
Nc1nc(C(F)(F)F)cc2c1[nH]c(=O)n2Cc1ccc(F)cc1 [Example 54] | 6.52 | 
Nc1nccc2c1[nH]c(=O)n2Cc1ccccc1 [Example 50] | 5.71 | 
